Source: the NIST ThermoML archive (doi:10.1016/j.jct.2011.07.021)
± gives the expanded uncertainty stated by the source.

Experiments:
[1] = relative permittivity at zero frequency (dimensionless); details: 101.33 kPa, Liquid, Parallel plate capacitor
[2] = refractive index (Na D-line) (dimensionless); details: 101.33 kPa, Liquid, Standard Abbe refractometry
[3] = 101.33 kPa, Liquid, Vibrating tube method
[4] = relative permittivity at zero frequency (dimensionless); xn = mol fraction of the nth substance listed; details: 101 kPa, Liquid, Parallel plate capacitor
[5] = refractive index (Na D-line) (dimensionless); xn = mol fraction of the nth substance listed; details: 101 kPa, Liquid, Standard Abbe refractometry

SMILES | relative permittivity at zero frequency ([1]; 298.2 K) | relative permittivity at zero frequency ([1]; 308.2 K) | relative permittivity at zero frequency ([1]; 318.2 K) | refractive index ([2]; 298.2 K) | refractive index ([2]; 308.2 K) | refractive index ([2]; 318.2 K) | mass density ([3]; 298.2 K) | mass density ([3]; 308.2 K) | mass density ([3]; 318.2 K) | other results
CCC(O)CO (centres undefined) [1,2-butanediol] | 22.143 ± 0.037 | 20.365 ± 0.036 | 18.661 ± 0.036 | 1.4372 ± 0.0005 | 1.433 ± 0.0005 | 1.4288 ± 0.0005 | 998.67 ± 0.85 kg/m3 | 991.15 ± 0.84 kg/m3 | 983.55 ± 0.83 kg/m3 | –
CCC(O)CO (centres undefined) [1,2-butanediol] + CCCCC(CC)CO | – | – | – | – | – | – | – | – | – | relative permittivity at zero frequency ([4]; 298.2 K, x1 = 1): 22.143 ± 0.037; relative permittivity at zero frequency ([4]; 308.2 K, x1 = 1): 20.365 ± 0.036; relative permittivity at zero frequency ([4]; 318.2 K, x1 = 1): 18.661 ± 0.036; refractive index ([5]; 298.2 K, x1 = 1): 1.4372 ± 0.0005; refractive index ([5]; 308.2 K, x1 = 1): 1.4312 ± 0.0005; refractive index ([5]; 318.2 K, x1 = 1): 1.4281 ± 0.0005
C1COCCO1 [1,4-dioxane] | 2.228 ± 0.01 | 2.21 ± 0.01 | 2.187 ± 0.01 | 1.4201 ± 0.0004 | 1.4142 ± 0.0004 | 1.4084 ± 0.0004 | 1027.9 ± 0.27 kg/m3 | 1016.11 ± 0.26 kg/m3 | 1005 ± 0.3 kg/m3 | –
C1COCCO1 [1,4-dioxane] + CCC(O)CO | – | – | – | – | – | – | – | – | – | relative permittivity at zero frequency ([4]; 298.2 K, x2 = 0): 2.228 ± 0.01; relative permittivity at zero frequency ([4]; 308.2 K, x2 = 0): 2.209 ± 0.01; relative permittivity at zero frequency ([4]; 318.2 K, x2 = 0): 2.187 ± 0.01; refractive index ([5]; 298.2 K, x2 = 0): 1.4201 ± 0.0004; refractive index ([5]; 308.2 K, x2 = 0): 1.4142 ± 0.0004; refractive index ([5]; 318.2 K, x2 = 0): 1.4084 ± 0.0004
CCCCC(CC)CO (centres undefined) [2-ethyl-1-hexanol] | 7.353 ± 0.022 | 6.361 ± 0.021 | 5.522 ± 0.02 | 1.4293 ± 0.0004 | 1.4252 ± 0.0004 | 1.4213 ± 0.0004 | 830.62 ± 0.22 kg/m3 | 823.1 ± 0.22 kg/m3 | 814.91 ± 0.23 kg/m3 | –
